Read-outs that look alike come from different tables or passages of the source.
Columns and labels:
Assay type in all cases: cell-based
[1] = molecular target: EGFR(D770_N771insSVD) expressing Ba/F3 stable cell line (Homo sapiens, UniProt P00533, DUP768-770, cells depend on it); test: Cellular proliferation (Alamar Blue) assay, EGFR(D770_N771insSVD) Ba/F3; conditions: 72 hr, read-out: D770 IC50
Protocol: Cell line details: • 1. EGFR(D770_N771insSVD) expressing Ba/F3 stable cell line • 2. EGFR (A767_dupASV) expressing Ba/F3 stable cell line • 3. A431 cells • 4. EGFR (H773insNPH) expressing Ba/F3 stable cell line • 5. HER2 (A775_G776insYVMA) expressing Ba/F3 stable cell line
• 1. Seed cells at 5000 for A431 and 15,000 cells for Ba/F3 in 100 μL/well in complete media (for A431: DMEM with 10% FBS and for Ba/F3 cells: RPMI with 10% FBS) in 96-well tissue culture plate. Leave outer wells without cells for background measurements. Incubate at 37 degree Celsius in 5% CO2 humidified incubator for 16-18 hours. • 2. Add 0.025 ml of 5X concentration compound dilution or DMSO control. Final compound concentration range is 10-0.0005 μM prepared in 3-fold serial dilutions. Incubate for 72 hr at 37 degree Celsius in 5% CO2 humidified incubator. • 3. Add 0.0125 ml Alamar Blue™ reagent to each well with multi-channel pipette and tap gently on each side of the plate to mix. Incubate for 3 hours at 37 degree Celsius in 5% CO2 humidified incubator. • 4. […] Data analysis was performed using XLfit 5.5.0.5.

[2] = molecular target: EGFR (A767_dupASV) expressing Ba/F3 stable cell line (Homo sapiens, UniProt P00533, DUP767-769, cells depend on it); test: Cellular proliferation (Alamar Blue) assay, EGFR (A767_dupASV) Ba/F3; conditions: 72 hr, read-out: A767 IC50
Outline: (§1)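 Engineered Ba/F3 lines in RPMI with 10% FBS and A431 cells in DMEM with 10% FBS are plated overnight, exposed to compound dilutions (10-0.0005 μM final) for 72 hours, and then scored by a 3-hour Alamar Blue incubation.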

A431 cells = test: Cellular proliferation (Alamar Blue) assay, A431 cells; conditions: A431 cells, 72 hr, Alamar Blue, read-out: A431 IC50
Outline: as §1

[3] = molecular target: HER2 (A775_G776insYVMA) expressing Ba/F3 stable cell line (Homo sapiens, UniProt P04626, DUP772-775, cells depend on it); test: Cellular proliferation (Alamar Blue) assay, HER2 (A775_G776insYVMA) Ba/F3; conditions: HER2 (A775_G776insYVMA) Ba/F3 cells; 72 hr; Alamar Blue; read-out: YVMA IC50
Outline: as §1

Sequence of EGFR(D770_N771insSVD) expressing Ba/F3 stable cell line (P00533 with tags, fused parts or gaps DUP768-770): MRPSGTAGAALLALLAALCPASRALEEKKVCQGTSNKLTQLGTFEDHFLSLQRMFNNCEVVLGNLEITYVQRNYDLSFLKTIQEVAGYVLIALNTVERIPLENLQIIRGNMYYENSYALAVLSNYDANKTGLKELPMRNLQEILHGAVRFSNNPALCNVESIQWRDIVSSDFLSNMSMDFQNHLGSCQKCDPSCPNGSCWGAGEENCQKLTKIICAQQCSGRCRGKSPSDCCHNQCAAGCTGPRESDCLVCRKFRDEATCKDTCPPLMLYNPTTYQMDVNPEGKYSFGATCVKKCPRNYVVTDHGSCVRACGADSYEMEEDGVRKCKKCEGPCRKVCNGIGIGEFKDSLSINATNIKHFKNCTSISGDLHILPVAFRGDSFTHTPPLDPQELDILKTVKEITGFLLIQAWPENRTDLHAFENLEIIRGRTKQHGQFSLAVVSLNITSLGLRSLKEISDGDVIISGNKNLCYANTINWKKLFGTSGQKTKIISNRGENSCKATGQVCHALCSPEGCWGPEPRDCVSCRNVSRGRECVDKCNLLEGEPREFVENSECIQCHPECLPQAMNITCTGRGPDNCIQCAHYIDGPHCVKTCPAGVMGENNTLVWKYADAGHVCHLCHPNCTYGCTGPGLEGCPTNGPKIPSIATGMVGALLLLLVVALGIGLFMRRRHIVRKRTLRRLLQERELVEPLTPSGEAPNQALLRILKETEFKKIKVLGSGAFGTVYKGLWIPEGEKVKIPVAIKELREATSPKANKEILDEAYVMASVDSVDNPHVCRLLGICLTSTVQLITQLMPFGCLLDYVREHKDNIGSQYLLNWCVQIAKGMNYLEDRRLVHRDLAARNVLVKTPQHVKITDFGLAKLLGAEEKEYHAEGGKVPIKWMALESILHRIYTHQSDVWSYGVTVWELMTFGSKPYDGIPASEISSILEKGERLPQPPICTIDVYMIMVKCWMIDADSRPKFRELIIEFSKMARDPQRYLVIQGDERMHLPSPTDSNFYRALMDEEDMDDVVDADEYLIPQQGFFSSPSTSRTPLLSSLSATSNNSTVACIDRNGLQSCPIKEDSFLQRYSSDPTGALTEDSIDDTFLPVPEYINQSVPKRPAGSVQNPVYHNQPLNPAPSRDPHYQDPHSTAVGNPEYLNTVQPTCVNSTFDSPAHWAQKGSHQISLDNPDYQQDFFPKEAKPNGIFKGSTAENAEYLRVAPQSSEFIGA
Sequence of HER2 (A775_G776insYVMA) expressing Ba/F3 stable cell line (P04626 with tags, fused parts or gaps DUP772-775): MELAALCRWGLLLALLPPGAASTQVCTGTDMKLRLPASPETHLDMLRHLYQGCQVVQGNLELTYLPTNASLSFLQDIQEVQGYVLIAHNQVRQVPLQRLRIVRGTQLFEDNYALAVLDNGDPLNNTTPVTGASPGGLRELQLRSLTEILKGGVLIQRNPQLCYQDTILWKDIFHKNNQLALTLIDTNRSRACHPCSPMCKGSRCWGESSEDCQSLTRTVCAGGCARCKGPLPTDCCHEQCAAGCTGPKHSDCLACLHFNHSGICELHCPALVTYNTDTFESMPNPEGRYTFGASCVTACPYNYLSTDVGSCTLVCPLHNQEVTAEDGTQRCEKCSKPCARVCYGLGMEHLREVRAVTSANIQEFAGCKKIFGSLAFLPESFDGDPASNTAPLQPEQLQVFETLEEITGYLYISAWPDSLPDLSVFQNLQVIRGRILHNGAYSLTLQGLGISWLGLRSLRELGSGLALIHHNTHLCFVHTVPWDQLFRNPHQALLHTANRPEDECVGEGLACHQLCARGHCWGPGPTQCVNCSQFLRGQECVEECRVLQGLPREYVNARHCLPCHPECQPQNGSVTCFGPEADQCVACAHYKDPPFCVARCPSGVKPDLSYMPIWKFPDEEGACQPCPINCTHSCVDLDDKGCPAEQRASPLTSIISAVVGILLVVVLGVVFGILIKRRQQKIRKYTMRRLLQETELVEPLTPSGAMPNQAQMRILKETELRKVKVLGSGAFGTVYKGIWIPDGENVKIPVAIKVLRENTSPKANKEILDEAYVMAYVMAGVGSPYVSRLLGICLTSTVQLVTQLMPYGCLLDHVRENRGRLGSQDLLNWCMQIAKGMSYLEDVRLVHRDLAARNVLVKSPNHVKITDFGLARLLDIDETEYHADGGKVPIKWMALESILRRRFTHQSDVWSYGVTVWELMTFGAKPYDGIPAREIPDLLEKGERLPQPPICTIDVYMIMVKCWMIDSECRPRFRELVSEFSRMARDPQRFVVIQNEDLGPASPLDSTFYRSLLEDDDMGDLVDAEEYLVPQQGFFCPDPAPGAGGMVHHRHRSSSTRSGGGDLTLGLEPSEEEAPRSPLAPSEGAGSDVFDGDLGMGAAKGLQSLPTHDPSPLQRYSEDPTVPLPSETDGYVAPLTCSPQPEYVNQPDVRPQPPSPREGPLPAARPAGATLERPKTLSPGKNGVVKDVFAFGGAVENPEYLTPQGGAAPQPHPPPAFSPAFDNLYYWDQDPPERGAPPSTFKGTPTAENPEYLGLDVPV
Sequence of EGFR (A767_dupASV) expressing Ba/F3 stable cell line (P00533 with tags, fused parts or gaps DUP767-769): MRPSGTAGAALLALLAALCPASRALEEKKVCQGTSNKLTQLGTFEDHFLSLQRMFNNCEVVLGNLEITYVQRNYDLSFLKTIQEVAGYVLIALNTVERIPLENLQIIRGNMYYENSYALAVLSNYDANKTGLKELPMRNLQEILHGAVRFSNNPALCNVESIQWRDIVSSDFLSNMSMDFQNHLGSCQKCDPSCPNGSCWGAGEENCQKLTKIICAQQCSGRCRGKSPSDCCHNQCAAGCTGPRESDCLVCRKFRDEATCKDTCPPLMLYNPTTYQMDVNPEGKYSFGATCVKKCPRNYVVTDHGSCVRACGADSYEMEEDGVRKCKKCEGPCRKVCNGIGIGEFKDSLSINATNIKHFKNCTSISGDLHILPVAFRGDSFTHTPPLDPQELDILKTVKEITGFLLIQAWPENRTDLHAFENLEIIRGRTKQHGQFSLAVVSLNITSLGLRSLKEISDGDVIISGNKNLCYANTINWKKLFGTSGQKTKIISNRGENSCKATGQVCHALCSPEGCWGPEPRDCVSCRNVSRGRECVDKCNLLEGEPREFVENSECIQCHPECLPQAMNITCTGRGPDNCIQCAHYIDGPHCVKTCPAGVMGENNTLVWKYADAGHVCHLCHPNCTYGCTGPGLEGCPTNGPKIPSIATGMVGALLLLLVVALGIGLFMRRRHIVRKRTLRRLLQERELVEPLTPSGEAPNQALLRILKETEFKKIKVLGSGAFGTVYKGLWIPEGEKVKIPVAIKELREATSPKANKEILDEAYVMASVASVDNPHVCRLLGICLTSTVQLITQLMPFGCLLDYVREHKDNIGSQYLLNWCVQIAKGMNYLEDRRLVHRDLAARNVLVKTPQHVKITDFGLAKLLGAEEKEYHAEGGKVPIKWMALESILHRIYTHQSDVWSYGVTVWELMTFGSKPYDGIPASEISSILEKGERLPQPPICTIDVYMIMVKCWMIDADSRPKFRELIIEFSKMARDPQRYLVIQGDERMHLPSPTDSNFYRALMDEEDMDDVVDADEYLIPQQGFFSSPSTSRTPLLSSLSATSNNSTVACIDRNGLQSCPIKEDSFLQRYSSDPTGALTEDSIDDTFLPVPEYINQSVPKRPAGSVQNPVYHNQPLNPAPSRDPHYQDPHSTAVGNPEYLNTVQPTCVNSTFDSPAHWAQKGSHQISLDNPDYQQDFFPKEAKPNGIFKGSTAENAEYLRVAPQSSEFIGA

Compound | GI50 [1] | GI50 [2] | IC50 (A431 cells; Homo sapiens, A-431, 72 h) | GI50 [3] | IC50 (A431 cells)
C=CC(=O)Nc1ccc(F)c(Nc2nc(Nc3cnn(C)c3)ncc2-c2cc(F)c(C(F)(F)F)c(OC)c2)c1 [Compound 133, N-(4-fluoro-3-((5-(3-fluoro-5-methoxy-4-(trifluoromethyl)phenyl)-2-((1-methyl-1H-pyrazol-4-yl)amino)pyrimidin-4-yl)amino)phenyl)acrylamide] | 251 nM | 322 nM | 394 nM | 1270 nM | –
C=CC(=O)Nc1cc(F)c(F)c(Nc2nc(Nc3cnn(C)c3)ncc2-c2cc(F)cc(OC)c2)c1 [Compound 170, N-(3,4-difluoro-5-((5-(3-fluoro-5-methoxyphenyl)-2-((1-methyl-1H-pyrazol-4-yl)amino)pyrimidin-4-yl)amino)phenyl)acrylamide] | > 10000 nM | > 10000 nM | 5250 nM | > 9040 nM | –
C=CC(=O)Nc1cccc(Nc2nc(Nc3cnn(C)c3)ncc2-c2cc(F)c(C(F)(F)F)c(F)c2)c1 [Compound 153, N-(3-((5-(3,5-difluoro-4-(trifluoromethyl)phenyl)-2-((1-methyl-1H-pyrazol-4-yl)amino)pyrimidin-4-yl)amino)phenyl)acrylamide] | 13 nM | 34 nM | 1080 nM | 98 nM | –
C=CC(=O)Nc1ccc(F)c(Nc2nc(Nc3cnn(C)c3)ncc2-c2cc(F)cc(OC(F)F)c2)c1 [Compound 168, N-(3-((5-(3-(difluoromethoxy)-5-fluorophenyl)-2-((1-methyl-1H-pyrazol-4-yl)amino)pyrimidin-4-yl)amino)-4-fluorophenyl)acrylamide] | 262 nM | 132 nM | 67 nM | 574 nM | –
CN(C)C/C=C/C(=O)Nc1ccc(F)c(Nc2nc(Nc3cnn(C)c3)ncc2-c2cc(F)cc(F)c2)c1 [Compound 161, (E)-N-(3-((5-(3,5-difluorophenyl)-2-((1-methyl-1H-pyrazol-4-yl)amino)pyrimidin-4-yl)amino)-4-fluorophenyl)-4-(dimethylamino)but-2-enamide] | 217 nM | 140 nM | – | 62 nM | 759 nM
CN(C)C/C=C/C(=O)Nc1ccc(F)c(Nc2nc(Nc3cnn(C)c3)ncc2-c2ccc(Br)c(F)c2)c1 [Compound 105, (E)-N-(3-((5-(4-bromo-3-fluorophenyl)-2-((1-methyl-1H-pyrazol-4-yl)amino)pyrimidin-4-yl)amino)-4-fluorophenyl)-4-(dimethylamino)but-2-enamide] | 129 nM | 663 nM | 85 nM | 125 nM | –
[2H]C([2H])=CC(=O)Nc1ccc(F)c(Nc2nc(Nc3cnn(C)c3)ncc2-c2ccc(Br)c(F)c2)c1 [Compound 102, N-(3-((5-(4-bromo-3-fluorophenyl)-2-((1-methyl-1H-pyrazol-4-yl)amino)pyrimidin-4-yl)amino)-4-fluorophenyl)acrylamide-3,3-d2] | 35 nM | 30 nM | 69 nM | 117 nM | –
C=CC(=O)Nc1ccc(F)c(Nc2nc(Nc3cnn(C)c3)ncc2-c2ccc(F)c(OC)c2)c1 [Compound 4, N-(4-fluoro-3-((5-(4-fluoro-3-methoxyphenyl)-2-((1-methyl-1H-pyrazol-4-yl)amino)pyrimidin-4-yl)amino)phenyl)acrylamide] | 295 nM | 293 nM | > 10000 nM | 262 nM | –
C=CC(=O)Nc1ccc(F)c(Nc2nc(Nc3cnn(C)c3)ncc2-c2cc(F)cc(Br)c2)c1 [Compound 109, N-(3-((5-(3-bromo-5-fluorophenyl)-2-((1-methyl-1H-pyrazol-4-yl)amino)pyrimidin-4-yl)amino)-4-fluorophenyl)acrylamide] | 53 nM | 97 nM | 534 nM | 192 nM | –
C=CC(=O)Nc1cc(Br)cc(Nc2nc(Nc3cnn(C)c3)ncc2-c2ccc(OC(F)F)c(F)c2)c1 [Compound 132, N-(3-bromo-5-((5-(4-(difluoromethoxy)-3-fluorophenyl)-2-((1-methyl-1H-pyrazol-4-yl)amino)pyrimidin-4-yl)amino)phenyl)acrylamide] | 34 nM | 40 nM | 51 nM | 345 nM | –
C=CC(=O)Nc1ccc(F)c(Nc2nc(Nc3cnn(C)c3)ncc2-c2cc(F)c(F)c(OC)c2)c1 [Compound 126, N-(3-((5-(3,4-difluoro-5-methoxyphenyl)-2-((1-methyl-1H-pyrazol-4-yl)amino)pyrimidin-4-yl)amino)-4-fluorophenyl)acrylamide] | 40 nM | 100 nM | 43 nM | 153 nM | –
C=CC(=O)Nc1cc(F)cc(Nc2nc(Nc3cnn(C)c3)ncc2-c2cc(F)c(C(F)(F)F)c(F)c2)c1 [Compound 164, N-(3-((5-(3,5-difluoro-4-(trifluoromethyl)phenyl)-2-((1-methyl-1H-pyrazol-4-yl)amino)pyrimidin-4-yl)amino)-5-fluorophenyl)acrylamide] | 22 nM | 18 nM | 103 nM | 157 nM | –
C=CC(=O)Nc1cccc(Nc2nc(Nc3cnn(C)c3)ncc2-c2ccc(OC(F)F)c(F)c2)c1 [Compound 124, N-(3-((5-(4-(difluoromethoxy)-3-fluorophenyl)-2-((1-methyl-1H-pyrazol-4-yl)amino)pyrimidin-4-yl)amino)phenyl)acrylamide] | 11 nM | 21 nM | 6 nM | 49 nM | –
C=CC(=O)Nc1cc(F)cc(Nc2nc(Nc3cnn(C)c3)ncc2-c2ccc(Br)c(F)c2)c1 [Compound 97, N-(3-((5-(4-bromo-3-fluorophenyl)-2-((1-methyl-1H-pyrazol-4-yl)amino)pyrimidin-4-yl)amino)-5-fluorophenyl)acrylamide] | 13 nM | 24 nM | 12 nM | 62 nM | –
C=CC(=O)Nc1ccc(F)c(Nc2nc(Nc3cnn(C)c3)ncc2-c2ccc(N3CCCCCC3)c(F)c2)c1 [Compound 85, N-(3-((5-(4-(azepan-1-yl)-3-fluorophenyl)-2-((1-methyl-1H-pyrazol-4-yl)amino)pyrimidin-4-yl)amino)-4-fluorophenyl)acrylamide] | 314 nM | 268 nM | 2820 nM | 884 nM | –
CN(C)C/C=C/C(=O)Nc1ccc(F)c(Nc2nc(Nc3cnn(C)c3)ncc2-c2cc(F)c(Br)c(F)c2)c1 [Compound 171, (E)-N-(3-((5-(4-bromo-3,5-difluorophenyl)-2-((1-methyl-1H-pyrazol-4-yl)amino)pyrimidin-4-yl)amino)-4-fluorophenyl)-4-(dimethylamino)but-2-enamide] | 79 nM | 99 nM | 57 nM | 113 nM | –
C=CC(=O)Nc1cc(Br)cc(Nc2nc(Nc3cnn(C)c3)ncc2-c2cc(F)cc(C(F)F)c2)c1 [Compound 174, N-(3-bromo-5-((5-(3-(difluoromethyl)-5-fluorophenyl)-2-((1-methyl-1H-pyrazol-4-yl)amino)pyrimidin-4-yl)amino)phenyl)acrylamide] | 42 nM | 120 nM | 358 nM | 759 nM | –
CN(C)C/C=C/C(=O)Nc1cccc(Nc2nc(Nc3cnn(C)c3)ncc2-c2cc(F)cc(F)c2)c1 [Compound 150, (E)-N-(3-((5-(3,5-difluorophenyl)-2-((1-methyl-1H-pyrazol-4-yl)amino)pyrimidin-4-yl)amino)phenyl)-4-(dimethylamino)but-2-enamide] | 126 nM | 110 nM | 214 nM | 237 nM | –
C=CC(=O)Nc1ccc(F)c(Nc2nc(Nc3cnn(C)c3)ncc2-c2cc(F)ccc2OC)c1 [Compound 9, N-(4-fluoro-3-((5-(5-fluoro-2-methoxyphenyl)-2-((1-methyl-1H-pyrazol-4-yl)amino)pyrimidin-4-yl)amino)phenyl)acrylamide] | 930 nM | 721 nM | > 10000 nM | 838 nM | –
C=CC(=O)Nc1ccc(F)c(Nc2nc(Nc3cn(C)nc3Cl)ncc2-c2cc(F)cc(OC)c2)c1 [Compound 106, N-(3-((2-((3-chloro-1-methyl-1H-pyrazol-4-yl)amino)-5-(3-fluoro-5-methoxyphenyl)pyrimidin-4-yl)amino)-4-fluorophenyl)acrylamide] | 285 nM | 35 nM | 125 nM | 568 nM | –

Source: patent US20230416232A1, “PYRIMIDINE COMPOUNDS, COMPOSITIONS, AND MEDICINAL APPLICATIONS THEREOF” (Blueprint Medicines Corporation, priority 2020, published 2023)
